This note sets out measurements from patent US9447037B2, “4-(5-(4-chlorophenyl)-2-(2-cyclopropylacetyl)-1,4-dimethyl-1H-pyrrol-3-yl)benzenesulfonamide as alpha 7 nAChR modulator” (Lupin Limited, priority 2013, dated 2016).

Molecules are shown by their SMILES. Where only a bound is given, the exact number is not on record here.

The subject of one assay is Sprague Dawley rats. The assay is described as follows: Social Recognition Task (subchronic study). The class given is in vivo, rat. The note with it: p.o.; for Minimum effective dose: subchronic 7 days, Sprague Dawley rats. The text has this: Briefly, Sprague Dawley rats were acclimatized to the CNS-Laboratory-animal holding room for at least 7 days prior to the randomization, under standard housing conditions. The animals were handled and familiarized with the injection procedures during this period. Two days before the experimentation (social interaction trial, SIT1), the rats were randomized in different treatment-groups based on their body weights namely, vehicle (Tween 80 (1%, v/v), Vitamin E TPGS (Speziol®, 10%, v/v) q.s. 100% v/v in milli-Q water; 2 ml/kg, p.o.), scopolamine (0.5 mg/kg, i.p.) and test compound (Compound 1:ranging from 0.05 to 0.50 mg/kg, p.o.).
Seven days before experiment, the vehicle or the test compound was administered to the adult rats once-daily and 1 h before the SIT1 on day-8 in respective treatment-groups. Scopolamine or vehicle was administered 20 min prior to the first social interaction (acquisition, SIT1) trial; scopolamine administration served to induced amnesia. After this treatment, the animals were subjected to the first social interaction (acquisition, SIT1) trial, which was followed by a second (retention, SIT2) trial, 30 min later.
In the case of time-delay induced amnesia paradigm, the vehicle or the test compounds (Compound 1) were administered to the adult rats once-daily for 7 days and 1 h before the SIT1 on day-8, in respective treatment-groups. After this treatment, the animals were subjected to a second (retention, SIT2) trial on day-9. The 24 h inter-trial interval served to induce spontaneous decay of memory and resultant amnesia.
Both the trials (acquisition and retention) were of 5 min duration. The social recognition task was performed in the home-cages made up of transparent polycarbonate. Juvenile rats of 3-4 weeks of age served as subjects for exploration to the adult rats. Adult rats were habituated to the home-cage (without juvenile) for 5 min just before SIT1.
Subject exploration (towards juvenile) was measured as the ‘time spent by the adult animal’ exploring the juvenile rat socially viz. sniffing, following, climbing over or going under or aggression. In order to avoid the confounding olfactory trails, the home-cage was individualized for each adult rat. During the second trial (retention trial, SIT2), adult rats were re-exposed to the same juvenile rat previously introduced earlier in the SIT1. The time of exploration in seconds was recorded for both sessions (SIT1 and SIT2).
Mean and standard error of mean (S.E.M) were determined for the exploration time of each social recognition trial (SIT1, SIT2) and recognition index across the treatment-groups. […]
The recognition index (RI) was calculated using the formula: Recognition index equals(time spent investigating juvenile rat in SIT2/time spent investigating juvenile rat in SIT1). […]

In the next assay the test system is Wistar rats. The experiment in a line: Novel Object Recognition Task (subchronic study). The class given is in vivo, rat. The conditions noted are these: p.o.; for Minimum effective dose: subchronic 7 days, Wistar rats. The text has this:
Briefly, Wistar rats were acclimatized to the CNS-Laboratory-animal holding room for at least 7 days prior to the randomization, under standard housing conditions. Animals were handled and familiarized with the injection procedures during this period. Two days before the experimentation (acquisition trial, T1), rats were randomized in different treatment-groups based on their body weights namely, vehicle (Tween 80 (1%, v/v), Vitamin E TPGS (Speziol®, 10%, v/v) q.s. 100% v/v in milli-Q water, 2 ml/kg, p.o.), scopolamine (1 mg/kg, i.p.) and test compounds (Compound 1: ranging from 0.005 to 0.05 mg/kg, p.o. and compound A:ranging from 0.05 to 0.5 mg/kg, p.o.)
Vehicle or test compounds (Compounds 1 and A) were administered in a single-dose, subchronically for 7 days, and 1 h before the acquisition trial on day-8 in respective treatment-groups. In order to induce cognitive deficits, scopolamine (1 mg/kg) was injected 25 min before the acquisition trial (T1). Acquisition (T1) and Retention (T2) trials were separated by an intertrial interval of 30 min. In the first trial (acquisition trial, T1), the rats were subjected to arena with two identical objects for a period of 5 min and exploration time towards individual object was measured. In retention trial, one of the identical object was replaced with novel object.
In the time-delay induced amnesia paradigm, vehicle or test compounds (Compounds 1 and A) were administered once-daily for 7 days, and 1 h before the acquisition trial (T1) on day-8 in the respective treatment-groups. After this, a second, retention (T2) trial, was conducted on day-9. A 24 h inter-trial interval served to induce spontaneous decay of memory and resultant amnesia in this paradigm.
In the second trial (retention trial, T2), one of the objects presented in T1 was replaced by a novel object, and the rats were left to explore in the arena for 5 min. The time spent exploring the familiar (F) and the novel object (N) was recorded separately. All the animals underwent habituation session of 10 min duration 24 h prior to acquisition trial to get them acclimatized to the test arena. Both the trials (acquisition and retention) were of 5 min duration. The NOR task was performed in the square-open-field boxes (40 cm long×40 cm wide×40 cm high) made up of non-reflective PVC sheets with black surrounding walls and light gray floor. Colored plastic and glass bottles of different size, shapes and texture, served as object of exploration.
Object exploration was measured as the ‘time spent by the animal’ directing its nose at a distance 2 cm to the object or touching and exploring it. Time spent climbing on the object was not accounted as object exploration. In order to avoid the presence of olfactory trails, the test boxes and objects were always thoroughly cleaned between trials of individual animals.
Mean and standard error of the mean (S.E.M.) was calculated for the exploration time of each identical objects in T1, novel and familiar objects in T2 and discrimination index across the treatment groups. Exploration time within groups was compared with Student's paired t-test. Discrimination index was compared between groups by One-way ANOVA with Dunnett's post hoc test in comparison to the scopolamine-treated group or vehicle-treated group as per the paradigm. Discrimination index was compared between groups by unpaired t-test in comparison to the vehicle-treated group. p<0.05 was considered as significant. All statistical comparisons were performed using GraphPad Prism version 5.00 for Windows, GraphPad Software, San Diego Calif. USA.
The discrimination index (DI) was calculated based on explorations in T2 trial, using the formula.
Discrimination Index equals (time spent investigating novel object−time spent investigating familiar object)/(time spent investigating novel object+time spent investigating familiar object). […] All the experimental recordings were carried out by manual observation of animals by trained scientists. […]

[1] abbreviates: Time-delay induced amnesia (24 h).

As to `Cc1c(-c2ccc(S(N)(=O)=O)cc2)c(C(=O)CC2CC2)n(C)c1-c1ccc(Cl)cc1` [Compound 1, 4-(5-(4-chlorophenyl)-2-(2-cyclopropylacetyl)-1,4-dimethyl-1H-pyrrol-3-yl)benzenesulfonamide], the “recognition index (RI) as compared to vehicle-treated group” value in the assay on Sprague Dawley rats (24 h time delay-induced amnesia, subchronic (7 day) 0.05 mg/Kg, FIG. 2A) is on record as “significantly decreased”. The Minimum effective dose in the assay with Sprague Dawley rats (Scopolamine induced amnesia) turned out to be 0.015 mg/kg; in the assay on Sprague Dawley rats (setting [1]), 0.05 mg/kg; with Wistar rats (Scopolamine induced amnesia), 0.015 mg/kg; in the assay with Wistar rats (setting [1]), 0.015 mg/kg. Moreover, in the assay with Sprague Dawley rats (Scopolamine-induced amnesia, subchronic (7 day) 0.05 mg/Kg, FIG. 2B), the “recognition index (RI) as compared to scopolamine treated group” value is recorded as “significantly decreased”. Besides, the “discrimination index as compared to vehicle-treated group” value with Wistar rats (24 h time delay-induced amnesia, subchronic (7 day) 0.05 mg/Kg, FIG. 1A) is “significantly increased”. The “discrimination index as compared to scopolamine treated group” value in the assay on Wistar rats (Scopolamine-induced amnesia, subchronic (7 day) 0.05 mg/Kg, FIG. 1B) is recorded as “significantly increased”.

Consider `CCC(=O)c1c(-c2ccc(S(N)(=O)=O)cc2)c(C)c(-c2ccc(Cl)cc2)n1C` [Compound A, 4-(5-(4-chlorophenyl)-1,4-dimethyl-2-propionyl-1H-pyrrol-3-yl)benzenesulfonamide, reference compound], for which the Minimum effective dose in the assay on Wistar rats (Scopolamine induced amnesia) is on record as above 0.5 mg/kg; with Wistar rats (setting [1]) it was 0.15 mg/kg.
